This experiment concerns the target JAK2 (Homo sapiens, UniProt O60674). Description: biochemical.

Sequence of JAK2 (O60674 whole entry): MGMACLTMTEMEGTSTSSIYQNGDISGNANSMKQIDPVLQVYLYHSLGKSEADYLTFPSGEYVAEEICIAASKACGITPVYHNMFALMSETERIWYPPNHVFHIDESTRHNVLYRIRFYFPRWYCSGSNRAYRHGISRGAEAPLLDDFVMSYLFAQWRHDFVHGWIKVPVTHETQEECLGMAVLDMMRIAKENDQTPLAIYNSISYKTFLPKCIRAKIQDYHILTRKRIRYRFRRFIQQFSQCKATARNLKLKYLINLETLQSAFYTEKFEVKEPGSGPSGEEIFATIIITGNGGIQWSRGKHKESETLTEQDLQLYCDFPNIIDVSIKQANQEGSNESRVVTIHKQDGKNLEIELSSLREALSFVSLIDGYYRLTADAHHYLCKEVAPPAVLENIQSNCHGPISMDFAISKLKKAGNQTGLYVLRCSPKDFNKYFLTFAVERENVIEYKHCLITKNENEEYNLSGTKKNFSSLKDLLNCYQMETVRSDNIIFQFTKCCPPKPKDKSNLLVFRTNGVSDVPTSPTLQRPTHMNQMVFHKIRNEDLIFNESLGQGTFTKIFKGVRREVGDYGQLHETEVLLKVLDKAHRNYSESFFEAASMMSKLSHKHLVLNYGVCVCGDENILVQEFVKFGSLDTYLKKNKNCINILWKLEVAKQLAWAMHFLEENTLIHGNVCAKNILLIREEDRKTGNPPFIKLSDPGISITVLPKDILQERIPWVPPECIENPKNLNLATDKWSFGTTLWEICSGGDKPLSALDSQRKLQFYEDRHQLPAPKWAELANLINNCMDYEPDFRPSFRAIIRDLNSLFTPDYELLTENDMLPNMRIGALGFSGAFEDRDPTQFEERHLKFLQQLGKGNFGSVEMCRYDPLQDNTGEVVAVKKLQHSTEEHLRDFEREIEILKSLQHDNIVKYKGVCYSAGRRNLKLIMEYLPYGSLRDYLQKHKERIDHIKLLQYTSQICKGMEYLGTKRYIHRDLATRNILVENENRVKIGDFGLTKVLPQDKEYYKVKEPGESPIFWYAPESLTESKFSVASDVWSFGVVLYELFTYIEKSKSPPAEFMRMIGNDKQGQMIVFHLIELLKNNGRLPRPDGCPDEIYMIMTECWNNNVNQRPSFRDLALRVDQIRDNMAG

For the compound `O=C(c1ccccc1)c1ccc2nc3c4ccccc4c4ccccc4c3nc2c1` [SBLJ23, Dibenzo [a, c] phenazin-11-yl(phenyl) methanone], the half-inhibitory concentration (IC50) (usually the concentration that gives 50% inhibition) was 522 nM.

For the origin of these results see PMC11915075, “Dibenzo [a, c] phenazin-11-yl(phenyl) methanone (SBLJ23), a novel selective inhibitor targeting JAK2^V617F mutation in myeloproliferative neoplasms” (Oncology Research, 2025).
